Reference: US6214860A, “Synergistic antitumor composition containing a naphthalensulphonic acid derivative” (Pharmacia & Upjohn S.p.A., priority 1997, dated 2001)
Where “and” joins values, the source holds several entries; their conditions need not be identical. Identical values can stand only once. Counter-ions that a name gives are not always drawn. Like-named read-outs stand apart in the source and are kept apart here.

Key:
[1] = tested on: M5076 murine reticulosarcoma cells; assay: In vitro antiproliferative activity (% cell growth vs untreated control); format: cell-based; conditions: for antiproliferative activity in the presence of PNU 145156E: in words, PNU 145156E 50000 ng/ml vs 0 ng/ml
Experimental: (§1) The combinations were assayed in vitro on M5076 murine reticulosarcoma cells and in vivo on the same tumor cells implanted intramuscularly.

[2] = days 1, 4, 7 and 11
Experimental: Mice C57BL/6 were implanted with M5076 murine reticulosarcoma cells. PNU 145156E was administered ip 2 h prior to cytotoxic drugs administered iv starting treatment 24 h after tumor implant. Treatments were performed at days 1, 4, 7 and 11.
The toxicological evaluation was performed in terms of body weight loss and spleen and liver reduction.

[3] = tested on: M5076 murine reticulosarcoma cells; assay: In vivo antitumor activity in mice implanted with M5076 tumor cells; parameters: species or system Mice C57BL/6; conditions: days 1, 4, 7 and 11; for A.U.C. % inhib. (inhibition of tumor growth): one week after last treatment; for TGD (tumor growth delay): time to reach one gram
Experimental: as §1
The antitumor activity was calculated in terms of:
% AUC: inhibition of tumor growth
T/C %: percentage of median increase in survival time
The A.U.C. (area under the curve) of the tumor growth was calculated by using the trapezoidal method, and is referred to the measurement of tumor growth performed one week after the last treatment. The percentage of inhibition (% A.U.C.) was calculated using the following formula: [formula]
The percentage of increase in survival time (T/C% ) was calculated using the following formula: [formula]
Mice were monitored according to guidelines and sacrificed when tumor weight exceeded 10% body weight. Tumor growth delay (TGD) is the time, in days, to reach one gram of tumor weight in treated animals as compared to control animals.
Evaluation of statistical significance was performed as follows: Student's Test for cytotoxic activity, Two-Way Anova for increase in survival time (T/C %) with combined treatment in comparison to the increase exerted separately by the two drugs, Tukey Test for tumor weight reduction (AUC % inhibition) with combined treatment in comparison to the reduction exerted separately by the two drugs.
The criterion for statistical significance was the 0.01 level ( )

[4] = VP-16 15 mg/kg iv, combination: + PNU 145156E 100 mg/kg ip 2 h prior
[5] = cytotoxic 40 ng/ml + PNU 145156E 50000 ng/ml, 72 h, 37° C.
[6] = 9AC 2.5 mg/kg iv, combination: + PNU 145156E 100 mg/kg ip 2 h prior
[7] = 9AC 3 mg/kg iv, combination: + PNU 145156E 100 mg/kg ip 2 h prior
[8] = 9AC 3.5 mg/kg iv, combination: + PNU 145156E 100 mg/kg ip 2 h prior
[9] = PNU 145156E alone 100 mg/kg ip, single-agent arm of each of Tables 2-6
[10] = CPT-11 60 mg/kg iv, combination: + PNU 145156E 100 mg/kg ip 2 h prior
[11] = CIS 6 mg/kg iv, combination: + PNU 145156E 100 mg/kg ip 2 h prior

CCc1c2c(nc3ccc(O)cc13)-c1cc3c(c(=O)n1C2)COC(=O)[C@]3(O)CC [SN-38]
activity at 0.0065 µg/mL ([1]; Mus musculus, M5076, 72 h, cytotoxic 6.5 ng/ml, PNU 145156E 0 ng/ml, 72 h, 37° C., read-out: % cell growth ± S.E.): 75 ± 5% | activity at 0.0125 µg/mL ([1]; Mus musculus, M5076, 72 h, cytotoxic 12.5 ng/ml, PNU 145156E 0 ng/ml, 72 h, 37° C., read-out: % cell growth ± S.E.): 19 ± 2% | activity at 0.035 µg/mL ([1]; Mus musculus, M5076, 72 h, cytotoxic 35 ng/ml, PNU 145156E 0 ng/ml, 72 h, 37° C., read-out: % cell growth ± S.E.): 5 ± 1% | % cell growth ± S.E. ([1]; cytotoxic 6.5 ng/ml + PNU 145156E 50000 ng/ml, 72 h, 37° C.): 74 ± 7% | % cell growth ± S.E. ([1]; cytotoxic 12.5 ng/ml + PNU 145156E 50000 ng/ml, 72 h, 37° C.): 25 ± 7% | antiproliferative activity in the presence of PNU 145156E [1]: unchanged in the presence of PNU 145156E

COc1cc([C@@H]2c3cc4c(cc3[C@@H](O[C@@H]3O[C@@H]5CO[C@@H](C)O[C@H]5[C@H](O)[C@H]3O)[C@H]3COC(=O)[C@H]23)OCO4)cc(OC)c1O [VP-16, etoposide]
activity at 0.004 µg/mL ([1]; Mus musculus, M5076, cytotoxic 4 ng/ml, PNU 145156E 0 ng/ml, 72 h, 37° C., read-out: % cell growth ± S.E.): 96 ± 8% | activity at 0.02 µg/mL ([1]; Mus musculus, M5076, cytotoxic 20 ng/ml, PNU 145156E 0 ng/ml, 72 h, 37° C., read-out: % cell growth ± S.E.): 77 ± 5% | activity at 0.1 µg/mL ([1]; Mus musculus, M5076, cytotoxic 100 ng/ml, PNU 145156E 0 ng/ml, 72 h, 37° C., read-out: % cell growth ± S.E.): 15 ± 7% | % cell growth ± S.E. ([1]; cytotoxic 4 ng/ml + PNU 145156E 50000 ng/ml, 72 h, 37° C.): 91 ± 2% | % cell growth ± S.E. ([1]; cytotoxic 20 ng/ml + PNU 145156E 50000 ng/ml, 72 h, 37° C.): 66 ± 8% | % cell growth ± S.E. ([1]; cytotoxic 100 ng/ml + PNU 145156E 50000 ng/ml, 72 h, 37° C.): 9 ± 4% | antiproliferative activity in the presence of PNU 145156E [1]: unchanged in the presence of PNU 145156E | Toxic/total mice [2, 4]: 0/9 | T/C % (median increase in survival time) [3, 4]: 130% | Tumor weight [3, 4]: 2.86 ± 0.8 gr | A.U.C. % inhib. (inhibition of tumor growth) [3, 4]: 90% | TGD (tumor growth delay) [3, 4]: 12 days

CC[C@@]1(O)C(=O)OCc2c1cc1n(c2=O)Cc2cc3c(N)cccc3nc2-1 [9-AC, 9-aminocamptothecin]
activity at 0.0025 µg/mL ([1]; Mus musculus, M5076, 72 h, cytotoxic 2.5 ng/ml, PNU 145156E 0 ng/ml, 72 h, 37° C., read-out: % cell growth ± S.E.): 88 ± 10% | activity at 0.01 µg/mL ([1]; Mus musculus, M5076, 72 h, cytotoxic 10 ng/ml, PNU 145156E 0 ng/ml, 72 h, 37° C., read-out: % cell growth ± S.E.): 28 ± 2% | activity at 0.04 µg/mL ([1]; Mus musculus, M5076, 72 h, cytotoxic 40 ng/ml, PNU 145156E 0 ng/ml, 72 h, 37° C., read-out: % cell growth ± S.E.): 7 ± 2% | % cell growth ± S.E. ([1]; cytotoxic 2.5 ng/ml + PNU 145156E 50000 ng/ml, 72 h, 37° C.): 76 ± 6% | % cell growth ± S.E. ([1]; cytotoxic 10 ng/ml + PNU 145156E 50000 ng/ml, 72 h, 37° C.): 29 ± 9% | % cell growth ± S.E. [1, 5]: 8 ± 3% | antiproliferative activity in the presence of PNU 145156E [1]: unchanged in the presence of PNU 145156E | Toxic/total mice [2, 6]: 0/10 | Toxic/total mice [2, 7]: 0/10 | Toxic/total mice [2, 8]: 1/10 | T/C % (median increase in survival time) [3, 6]: 121% | Tumor weight [3, 6]: 2.4 ± 0.9 gr | A.U.C. % inhib. (inhibition of tumor growth) [3, 6]: 45% | TGD (tumor growth delay) [3, 6]: 5 days | T/C % (median increase in survival time) [3, 7]: 125% | Tumor weight [3, 7]: 2.13 ± 0.8 gr | A.U.C. % inhib. (inhibition of tumor growth) [3, 7]: 48% | TGD (tumor growth delay) [3, 7]: 6 days | T/C % (median increase in survival time) [3, 8]: 128% | Tumor weight [3, 8]: 1.58 ± 0.6 gr | A.U.C. % inhib. (inhibition of tumor growth) [3, 8]: 68% | TGD (tumor growth delay) [3, 8]: 8 days

Cn1cc(NC(=O)Nc2cc(C(=O)Nc3cc(C(=O)Nc4ccc5cc(S(=O)(=O)O)cc(S(=O)(=O)O)c5c4)n(C)c3)n(C)c2)cc1C(=O)Nc1cc(C(=O)Nc2ccc3cc(S(=O)(=O)O)cc(S(=O)(=O)O)c3c2)n(C)c1 [PNU 145156E, 7'-(carbonyl-bis(imino-N-methyl-4,2-pyrrolecarbonyl-imino(N-methyl-4,2-pyrrole)carbonylimino))bis(1,3-naphtalen-disulfonic acid)tetrasodium salt]
activity at 50 µg/mL ([1]; Mus musculus, M5076, 72 h, PNU 145156E 50000 ng/ml alone (cytotoxic 0 ng/ml), 72 h, 37° C., read-out: % cell growth ± S.E.): 85% | % cell growth ± S.E. ([1]; PNU 145156E 50000 ng/ml alone (cytotoxic 0 ng/ml), 72 h, 37° C., 4320 min): 88 ± 3% and 92 ± 5% and 92 ± 14% and 89 ± 19% | Toxic/total mice [2, 9]: 0/10 and 0/9 and 0/8 | T/C % (median increase in survival time) [3, 9]: 121% and 141% and 148% | Tumor weight [3, 9]: 1.45 ± 0.7 gr and 2.63 ± 0.8 gr and 1.4 ± 0.7 gr and 1.7 ± 0.65 gr | A.U.C. % inhib. (inhibition of tumor growth) [3, 9]: 88% and 85% and 90% and 75% | TGD (tumor growth delay) [3, 9]: 9 days and 10 days and 16 days

CCc1c2c(nc3ccc(OC(=O)N4CCC(N5CCCCC5)CC4)cc13)-c1cc3c(c(=O)n1C2)COC(=O)[C@]3(O)CC [CPT-11, irinotecan]
Toxic/total mice [2, 10]: 0/8 | T/C % (median increase in survival time) [3, 10]: 215% | Tumor weight [3, 10]: 0.05 ± 0.2 gr | A.U.C. % inhib. (inhibition of tumor growth) [3, 10]: 100% | TGD (tumor growth delay) [3, 10]: 34 days

N.N.[Cl][Pt][Cl] [CIS, cisplatin]
% cell growth ± S.E. ([1]; cytotoxic 8 ng/ml + PNU 145156E 50000 ng/ml, 72 h, 37° C.): 83 ± 7% | % cell growth ± S.E. ([1]; cytotoxic 8 ng/ml, PNU 145156E 0 ng/ml, 72 h, 37° C.): 91 ± 3% | % cell growth ± S.E. [1, 5]: 46 ± 3% | % cell growth ± S.E. ([1]; cytotoxic 40 ng/ml, PNU 145156E 0 ng/ml, 72 h, 37° C.): 52 ± 7% | % cell growth ± S.E. ([1]; cytotoxic 200 ng/ml + PNU 145156E 50000 ng/ml, 72 h, 37° C.): 4 ± 1% | % cell growth ± S.E. ([1]; cytotoxic 200 ng/ml, PNU 145156E 0 ng/ml, 72 h, 37° C.): 9 ± 5% | antiproliferative activity in the presence of PNU 145156E [1]: unchanged in the presence of PNU 145156E | T/C % (median increase in survival time) [3, 11]: 130% | Tumor weight [3, 11]: 1.1 ± 0.1 gr | A.U.C. % inhib. (inhibition of tumor growth) [3, 11]: 75% | TGD (tumor growth delay) [3, 11]: 11 days
